Experiments:
[1] = Anticancer activity against human CLS-354 cells assessed as cell growth inhibition measured after 24 hrs by MTT assay; assay type: functional, cell-based; settings: CLS-354, 24 h
[2] = Anticancer activity against cisplatin/camptothecin resistant human CLS-354 cells assessed as cell growth inhibition measured after 24 hrs by MTT assay; assay type: functional, cell-based; settings: CLS-354, 24 h
[3] = Potency index, ratio of cisplatin IC50 to compound IC50 for anticancer activity against cisplatin/camptothecin resistant human CLS-354 cells by MTT assay; assay type: functional
MCF7 [4] = assay: Cytotoxicity against human MCF7 cells assessed as cell growth inhibition measured after 48 hrs by MTT assay; assay type: functional, cell-based; settings: MCF7, 48 h
MCF7 [5] = assay: Potency index, ratio of Doxorubicin IC50 to compound IC50 for cytotoxicity against human MCF7 cells by MTT assay; assay type: functional
HeLa [6] = assay: Cytotoxicity against human HeLa cells assessed as cell growth inhibition by MTT assay; assay type: functional, cell-based
HCT-116 = assay: Antitumor activity against human HCT-116 cells xenografted in BALB/c nu/nu mouse assessed as reduction in tumor volume at 100 mg/kg/day, ip administered for 20 days measured by caliper relative to control; assay type: functional; set-up: scale not given: the % may be the effect or the level left; settings: time 20 day
A549 [7] = assay: Antiproliferative activity against human A549 cells assessed as cell growth inhibition measured after 48 hrs by MTT assay; assay type: functional, cell-based; settings: A549, 48 h
MCF7 [8] = assay: Antiproliferative activity against human MCF7 cells assessed as cell growth inhibition measured after 48 hrs by MTT assay; assay type: functional, cell-based; settings: MCF7, 48 h
MDA-MB-231 = assay: Cytotoxicity against human MDA-MB-231 cells assessed as cell growth inhibition measured after 48 hrs by MTT assay; assay type: functional, cell-based; settings: MDA-MB-231, 48 h
HeLa [9] = assay: Cytotoxicity against human HeLa cells assessed as cell growth inhibition measured after 48 hrs by MTT assay; assay type: functional, cell-based
[10] = Cytotoxicity against human HUVEC cells assessed as cell growth inhibition measured after 48 hrs by MTT assay; assay type: toxicity, cell-based
NCI-H1299 = assay: Cytotoxicity against human NCI-H1299 cells assessed as cell growth inhibition by Trypan blue staining based analysis; assay type: functional; settings: pooled result: one value given for 6 cell lines, strains, targets or settings
A549 [11] = assay: Antitumour activity against human A549 cells xenografted in mouse assessed as reduction in tumor volume at 3 mg/kg relative to control; assay type: functional; set-up: scale not given: the % may be the effect or the level left
AGS = assay: Antiproliferative activity against human AGS cells assessed as cell growth inhibition measured after 72 hrs by MTT assay; assay type: functional, cell-based
SGC-7901 = assay: Antiproliferative activity against human SGC-7901 cells assessed as cell growth inhibition measured after 72 hrs by MTT assay; assay type: functional, cell-based; settings: SGC-7901, 72 h

CC(C)=CCC[C@@]1(C)C=Cc2c(ccc3c2[nH]c2cc(O)c(C)cc23)O1
IC50 [1]: 14.4 µM | IC50 [2]: 16 µM | Ratio IC50 [3]: 2.1

N#CC1=C(N)Oc2ccc3c([nH]c4ccccc43)c2C12C(=O)N(Cc1cn(Cc3ccc([N+](=O)[O-])cc3)nn1)c1ccccc12 (configuration not stated)
IC50 (MCF7 [4]): 2.13 µM | Ratio IC50 (MCF7 [5]): 2.1

CCn1c2ccccc2c2cc(/C=N/NC(=O)c3ccccc3Cl)ccc21
IC50 (HeLa [6]): 3.12 µM | Activity (HCT-116): 35%

Cn1c2ccccc2c2cc(C3NCCc4c3[nH]c3ccccc43)ccc21 (configuration not stated)
IC50 (A549 [7]): 5.04 µM | IC50 (MCF7 [8]): 5.48 µM

CCCCCn1cc(CN2C(=O)C3(C(C#N)=C(N)Oc4ccc5c([nH]c6ccccc65)c43)c3ccccc32)nn1 (configuration not stated)
IC50 (MCF7 [4]): 4.8 µM | IC50 (MDA-MB-231): 4.8 µM | IC50 (HeLa [9]): 4.8 µM | IC50 at 48 h [10]: 4.8 µM

CCn1c2ccccc2c2cc(NC(=O)NCCN3CCN(C(=O)c4ccco4)CC3)ccc21
IC50 (NCI-H1299): 1.78 µM | Activity (A549 [11]): 65%

N=C(N)N/N=C/c1ccc2c(c1)c1ccccc1n2Cc1ccccc1F
IC50 (AGS): 0.4 µM | IC50 (SGC-7901): 1.5 µM
